{"source": "paper PMC10541456", "about": "“A phase I, single‐center, open‐label study to investigate the absorption, distribution, metabolism and excretion of encorafenib following a single oral dose of 100 mg [ ^14C] encorafenib in healthy male subjects” (Pharmacology Research & Perspectives, 2023)", "key": {"[1]": {"test": "Total radioactivity PK in plasma", "type": "in vivo, human", "experimental": "Venous blood samples (18 mL/time point) were collected by either direct venipuncture or from an indwelling cannula inserted into a vein of the forearm into tubes containing potassium ethylene diamine tetra acetic acid (K2‐EDTA) at the following times for metabolite characterization, total radioactivity and parent drug analysis: Pre‐dose, 0.5, 1, 1.5, 2, 3, 4, 6, 8, 12, 24, 48, 72, 96, 120 and 144 h post‐dose. Urine samples were collected into pre‐weighed, uniquely labeled containers pre‐dose (before drug administration) and at the following intervals: 0–4, 4–8, 8–24, 24–48, 48–72, 72–96, 96–120 and 120–144 h post‐dose. Feces samples were collected quantitatively into uniquely labeled, polypropylene containers pre‐dose (before drug administration) and individually until 144 h post‐dose. Urine and feces samples were frozen at −20°C and blood samples at −70°C.\nAnalysis of total radioactivity data in plasma, blood, feces, and urine was performed by Covance Laboratories Inc. All sample combustions were performed in a Model 307 Sample Oxidizer (Packard Instrument Company) and the resulting ^14CO2 was trapped in a mixture of Perma Fluor™ (Perkin Elmer) and Carbo Sorb® (Perkin Elmer). Oxidation efficiency was evaluated on each day of sample combustion by analyzing a commercial radiolabeled standard both directly in a scintillation cocktail and by oxidation. […] EcoLite™(+) scintillation cocktail was used for samples analyzed directly. All samples were analyzed for radioactivity in Model 2900TR or 2910TR liquid scintillation counters (Packard Instrument Company) for at least 5 min or 100 000 counts. Each sample was homogenized or mixed before radioanalysis (unless the entire sample was used for analysis). All samples were analyzed in duplicate or triplicate, as applicable, if sample size allowed. If results from sample replicates (calculated as ^14C disintegrations per minute (dpm)/g sample) differed by more than 10% from the mean value and sample aliquots had radioactivity greater than 200 dpm, the sample was re‐homogenized or remixed and reanalyzed (if the sample size permitted).\nBlood samples were mixed and duplicate aliquots of each (approximately 0.4 g) were combusted and analyzed by liquid scintillation […]. Plasma and urine samples were separately mixed and duplicate weighed aliquots of each (approximately 0.4 g for plasma and 0.2 g for urine) were analyzed directly by LSC. Urine volumes provided by the Covance clinical research unit were entered as a weight assuming a specific gravity of 1 g/mL. Feces samples were analyzed individually (samples were not combined by interval) and the weight of each individual sample was recorded. A weighed amount of methanol:water (20:80, v:v; approximately 2 to 3 times the sample weight, such that the homogenate weight:sample weight ratio was approximately 3 to 4) was added and the sample was mixed and homogenized using a probe type homogenizer. Triplicate‐weighed aliquots (approximately 0.2 g) were combusted and analyzed by LSC. The empty treatment vial from each subject was analyzed by adding a weighed amount of methanol to each vial and analyzing duplicate weighed aliquots (approximately 0.5 g) of each extract by LSC. Residual radioactivity recovered from each treatment vial was subtracted from the dose administered to the appropriate subject.\nThe total radioactivity in blood and plasma was determined by LSC. Nominal sampling time points were used for deriving total radioactivity blood and plasma PK data. […]"}, "[2]": {"test": "Stability in simulated gastric and intestinal fluid", "type": "in vitro ADME", "conditions": "37°C, relative to time = 0 h", "experimental": "Simulated gastric fluid (SGF) was generated by mixing 2.0 g of sodium chloride and 3.2 g of purified pepsin, which is derived from porcine stomach mucosa, with an activity of 800 to 2500 units per mg of protein, in 7.0 mL of hydrochloric acid and sufficient water to make 1000 mL. The final test solution has a pH of about 1.2. Simulated intestinal fluid (SIF) was generated by dissolving 6.8 g of monobasic potassium phosphate in 250 mL of water and adding 77 mL of 0.2 N sodium hydroxide and 500 mL of water. To this mixture, 10.0 g of pancreatin was added and the solution pH was adjusted with either 0.2 N sodium hydroxide or 0.2 N hydrochloric acid to a pH of 6.8 ± 0.1 and diluted with water to a final volume of 1000 mL. Encorafenib was dissolved in SGF (100 μM final encorafenib concentration) and incubated for 1 h or SIF (1 μM final encorafenib concentration) for 3 h. Dilutions are prepared in HPLC vials by combining 20 μL of the test compound in DMSO with 180 μL of the specified assay media. Separate dilutions are prepared for each time point per media. The media is mixed by repeated pipetting, vortexed and incubated at 37°C. At the specified time period and equal volume of cold ACN is added to the vial to precipitate the protein and quench any enzymatic activity. […] Stability is calculated as % remaining relative to the T = 0 peak area."}, "CYP2D6": {"system": "CYP2D6", "parameters": "method as in earlier work", "conditions": "cited from earlier work"}}, "note": "Several values for one entry are separate records, joined by “and”; a condition that tells them apart may be missing. Identical values can stand only once.", "data": [{"molecule": "COC(=O)N[C@@H](C)CNc1nccc(-c2cn(C(C)C)nc2-c2cc(Cl)cc(NS(C)(=O)=O)c2F)n1", "note": "[encorafenib]", "values": [{"measurement": "Cmax, total radioactivity", "setting": "[1]; Mean (SD)", "result": "2170 (107) ngEq/mL"}, {"measurement": "T1/2, total radioactivity", "setting": "[1]; Mean (SD)", "result": "5.1 h and 5.1 (1.30) h"}, {"measurement": "Cmax, total radioactivity", "setting": "[1]; Median (Minimum–Maximum)", "result": "2190 (2020–2330) ngEq/mL"}, {"measurement": "T1/2, total radioactivity", "setting": "[1]; Median (Minimum–Maximum)", "result": "4.5 (7.1–4.3) h"}, {"measurement": "Tmax, total radioactivity", "setting": "[1]; Median (Minimum–Maximum)", "result": 1.3, "unit": "h"}, {"measurement": "Percentage remaining in SIF with pancreatin", "setting": "[2]; 3-h incubation, 1 μM, pH 6.8", "result": "approximately 97%"}, {"measurement": "Percentage remaining in SGF with pepsin", "setting": "[2]; 1 h incubation, 100 μM, pH about 1.2", "result": "approximately 101%"}, {"measurement": "Contribution of CYP2D6 to metabolism", "setting": "CYP2D6", "result": 1, "unit": "%"}]}]}
